Laboratory results published in the supplement of paper PMC10627819.

What was measured:
S. aureus Newman [1] = experiment: fitness (endpoint OD595 vs no drug) (fraction); higher = more growth
How it was run: (§1)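 In 384-well plates at 37 °C, cultures began at OD595 0.01 in 30 µl, with 55 µl used for S. pneumoniae. OD595 readings every 30 min for 14 h were corrected by the first reading. Fitness divides the stationary-phase transition optical density by the robust mean of no-drug control wells. The result is capped at 1.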

S. aureus DSM 20231 [2] = experiment: as above
How it was run: as §1

S. pneumoniae D39V [3] = experiment: as above
How it was run: as §1

B. subtilis 168 [4] = experiment: as above
How it was run: as §1

S. aureus Newman [5] = experiment: Bliss interaction score (quartile over a dose matrix) (fitness difference); higher = more antagonism (negative = synergy)
How it was run: (§2)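 At entry into stationary phase, OD595 was recorded and divided by the robust mean of the no-drug wells on that plate, with any value above 1 set to 1. This gives the fitness measure used throughout. Single-drug fitness was inferred from combination data, and the Bliss score, observed minus product-expected fitness, is shown as quartiles across technical, biological and donor/recipient replicates.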

S. aureus DSM 20231 [6] = experiment: as above
How it was run: as §2

S. pneumoniae D39V [7] = experiment: as above
How it was run: as §2

B. subtilis 168 [8] = experiment: as above
How it was run: as §2
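Throughout, for Bliss interaction score (quartile over a dose matrix): first quartile when negative (synergy) and third quartile when positive (antagonism).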

CCC[C@@H]1C[C@@H](C(=O)N[C@@H]([C@H]2O[C@H](SC)[C@H](O)[C@@H](O)[C@H]2O)[C@H](C)Cl)N(C)C1 [Clindamycin] + O=C(O[C@@H]1Cc2c(O)cc(O)cc2O[C@@H]1c1cc(O)c(O)c(O)c1)c1cc(O)c(O)c(O)c1 [EGCG]
fitness
Settings | partner 6.25 µg/mL | partner 12.5 µg/mL | partner 25 µg/mL | partner 50 µg/mL
B. subtilis 168 [4], first compound 0.25 µg/mL | 0.356 | 0.337 | 0.119 | –
S. aureus DSM 20231 [2], first compound 0.0312 µg/mL | – | 0.485 | 0.49 | 0.416
S. aureus DSM 20231 [2], first compound 0.0625 µg/mL | – | – | 0.172 | 0.115
S. aureus DSM 20231 [2], first compound 0.125 µg/mL | – | 0.0823 | 0.0417 | 0.0383
S. aureus Newman [1], first compound 0.0312 µg/mL | – | 0.603 | 0.587 | 0.598
S. aureus Newman [1], first compound 0.125 µg/mL | – | – | 0.0771 | 0.046
S. pneumoniae D39V [3], first compound 0.0125 µg/mL | – | 0.703 | 0.686 | 0.605
S. pneumoniae D39V [3], first compound 0.015 µg/mL | – | 0.734 | 0.661 | 0.538
S. pneumoniae D39V [3], first compound 0.025 µg/mL | – | 0.466 | 0.405 | 0.392
S. pneumoniae D39V [3], first compound 0.03 µg/mL | – | 0.466 | 0.414 | 0.3
S. pneumoniae D39V [3], first compound 0.05 µg/mL | – | 0.173 | 0.168 | 0.178
S. pneumoniae D39V [3], first compound 0.06 µg/mL | – | 0.312 | 0.315 | 0.22

fitness, B. subtilis 168 [4], one replicate
Settings | first compound 0.0039 µg/mL | first compound 0.0078 µg/mL | first compound 0.0156 µg/mL
partner 6.25 µg/mL | 0.986 | 0.862 | 0.85
partner 12.5 µg/mL | 0.511 | 0.402 | 0.383
partner 25 µg/mL | 0.401 | 0.362 | 0.374

Settings | Bliss interaction score
B. subtilis 168 [8] | 0.136
S. aureus DSM 20231 [6] | 0.0371
S. aureus Newman [5] | -0.0691
S. pneumoniae D39V [7] | -0.108

O=C(O[C@@H]1Cc2c(O)cc(O)cc2O[C@@H]1c1cc(O)c(O)c(O)c1)c1cc(O)c(O)c(O)c1 [EGCG] + CC1=C\[C@@H](O)CC(=O)Cc2nc(co2)C(=O)N2CCC=C2C(=O)O[C@H](C(C)C)[C@H](C)/C=C/C(=O)NC\C=C\1 [Virginiamycin M1]
fitness
Settings | partner 0.0625 µg/mL | partner 0.125 µg/mL | partner 0.25 µg/mL | partner 0.5 µg/mL | partner 1 µg/mL | partner 2 µg/mL
B. subtilis 168 [4], first compound 6.25 µg/mL | 0.973 | 0.974 | 0.997 | – | – | –
S. aureus DSM 20231 [2], first compound 12.5 µg/mL | 0.86 | 0.931 | 0.686 | – | – | –
S. aureus DSM 20231 [2], first compound 25 µg/mL | 0.859 | ≥ 1 | 0.904 | – | – | –
S. aureus DSM 20231 [2], first compound 50 µg/mL | 0.76 | 0.986 | 0.82 | – | – | –
S. aureus Newman [1], first compound 12.5 µg/mL | 0.811 | 0.858 | 0.817 | – | – | –
S. aureus Newman [1], first compound 25 µg/mL | 0.868 | 0.897 | 0.865 | – | – | –
S. aureus Newman [1], first compound 50 µg/mL | 0.925 | 0.96 | 0.878 | – | – | –
S. pneumoniae D39V [3], first compound 12.5 µg/mL | – | – | – | 0.973 | 0.958 | 0.921
S. pneumoniae D39V [3], first compound 25 µg/mL | – | – | – | ≥ 1 | ≥ 1 | 0.89
S. pneumoniae D39V [3], first compound 50 µg/mL | – | – | – | 0.965 | 0.946 | 0.889

fitness, one replicate
Settings | first compound 12.5 µg/mL | first compound 25 µg/mL | first compound 50 µg/mL
S. aureus DSM 20231 [2], partner 0.5 µg/mL | 0.807 | 0.715 | 0.694
S. aureus DSM 20231 [2], partner 1 µg/mL | 0.67 | 0.65 | 0.543
S. aureus Newman [1], partner 0.5 µg/mL | 0.678 | 0.728 | 0.682
S. aureus Newman [1], partner 1 µg/mL | 0.702 | 0.715 | 0.677
S. aureus Newman [1], partner 2 µg/mL | 0.671 | 0.624 | 0.622
S. pneumoniae D39V [3], partner 0.15 µg/mL | 0.891 | 0.872 | 0.883
S. pneumoniae D39V [3], partner 0.3 µg/mL | 0.823 | 0.847 | 0.842

Settings | Bliss interaction score
B. subtilis 168 [8] | 0.0619
S. aureus DSM 20231 [6] | 0.119
S. aureus Newman [5] | 0.0651
S. pneumoniae D39V [7] | -0.092

O=C(O[C@@H]1Cc2c(O)cc(O)cc2O[C@@H]1c1cc(O)c(O)c(O)c1)c1cc(O)c(O)c(O)c1 [EGCG] + CCN(CC)CCOC(=O)c1ccc(N)cc1 [Procaine]
fitness
Settings | partner 85.5 µg/mL | partner 171 µg/mL | partner 342 µg/mL
B. subtilis 168 [4], first compound 6.25 µg/mL | 0.913 | 0.882 | 0.88
B. subtilis 168 [4], first compound 12.5 µg/mL | 0.715 | 0.75 | 0.599
B. subtilis 168 [4], first compound 25 µg/mL | – | – | 0.227
S. aureus DSM 20231 [2], first compound 12.5 µg/mL | 0.821 | 0.821 | 0.833
S. aureus DSM 20231 [2], first compound 25 µg/mL | 0.809 | 0.858 | 0.886
S. aureus DSM 20231 [2], first compound 50 µg/mL | – | 0.854 | –
S. aureus Newman [1], first compound 12.5 µg/mL | 0.729 | 0.764 | 0.77
S. aureus Newman [1], first compound 25 µg/mL | 0.641 | 0.71 | 0.78
S. pneumoniae D39V [3], first compound 12.5 µg/mL | 0.965 | 0.984 | 0.912
S. pneumoniae D39V [3], first compound 25 µg/mL | 0.969 | ≥ 1 | 0.969
S. pneumoniae D39V [3], first compound 50 µg/mL | 0.996 | 0.903 | ≥ 1

Settings | Bliss interaction score
B. subtilis 168 [8] | -0.0744
S. aureus DSM 20231 [6] | 0.0893
S. aureus Newman [5] | -0.124
S. pneumoniae D39V [7] | 0.0572

O=C(O[C@@H]1Cc2c(O)cc(O)cc2O[C@@H]1c1cc(O)c(O)c(O)c1)c1cc(O)c(O)c(O)c1 [EGCG] + CN1C2=CC=CC=C2N=C3C1=CC=CC3=O [Pyocyanin]
fitness
Settings | first compound 6.25 µg/mL | first compound 12.5 µg/mL | first compound 25 µg/mL | first compound 50 µg/mL
B. subtilis 168 [4], partner 1.25 µg/mL | 0.81 | 0.898 | – | –
B. subtilis 168 [4], partner 2.5 µg/mL | 0.831 | 0.805 | 0.638 | –
B. subtilis 168 [4], partner 5 µg/mL | 0.662 | 0.645 | 0.485 | –
S. aureus DSM 20231 [2], partner 1.25 µg/mL | – | 0.677 | 0.689 | –
S. aureus DSM 20231 [2], partner 2.5 µg/mL | – | 0.693 | 0.682 | 0.624
S. aureus DSM 20231 [2], partner 5 µg/mL | – | 0.555 | 0.56 | 0.492
S. aureus Newman [1], partner 1.25 µg/mL | – | 0.679 | 0.616 | –
S. aureus Newman [1], partner 2.5 µg/mL | – | 0.647 | 0.548 | –
S. aureus Newman [1], partner 5 µg/mL | – | 0.403 | 0.409 | 0.315
S. pneumoniae D39V [3], partner 0.325 µg/mL | – | 0.986 | ≥ 1 | ≥ 1
S. pneumoniae D39V [3], partner 0.65 µg/mL | – | 0.976 | 0.98 | 0.925
S. pneumoniae D39V [3], partner 1.3 µg/mL | – | 0.638 | 0.628 | 0.75

Settings | Bliss interaction score
B. subtilis 168 [8] | 0.187
S. aureus DSM 20231 [6] | -0.114
S. aureus Newman [5] | -0.0806
S. pneumoniae D39V [7] | -0.0423

O=C(O[C@@H]1Cc2c(O)cc(O)cc2O[C@@H]1c1cc(O)c(O)c(O)c1)c1cc(O)c(O)c(O)c1 [EGCG] + CN(N=O)C(=O)N[C@@H](C=O)[C@@H](O)[C@H](O)[C@H](O)CO [Streptozotocin]
fitness
Settings | first compound 6.25 µg/mL | first compound 12.5 µg/mL | first compound 25 µg/mL | first compound 50 µg/mL
B. subtilis 168 [4], partner 0.15 µg/mL | 0.913 | 0.571 | – | –
B. subtilis 168 [4], partner 0.3 µg/mL | 0.856 | 0.62 | 0.449 | –
B. subtilis 168 [4], partner 0.6 µg/mL | 0.915 | 0.515 | 0.391 | –
S. aureus DSM 20231 [2], partner 0.15 µg/mL | – | 0.763 | 0.702 | 0.683
S. aureus DSM 20231 [2], partner 0.3 µg/mL | – | 0.643 | 0.635 | 0.658
S. aureus DSM 20231 [2], partner 0.6 µg/mL | – | 0.597 | 0.595 | 0.499
S. aureus Newman [1], partner 0.15 µg/mL | – | 0.711 | 0.804 | 0.783
S. aureus Newman [1], partner 0.3 µg/mL | – | 0.737 | 0.477 | 0.752
S. aureus Newman [1], partner 0.6 µg/mL | – | 0.404 | 0.416 | 0.572
S. pneumoniae D39V [3], partner 1.2 µg/mL | – | 0.911 | 0.947 | 0.919
S. pneumoniae D39V [3], partner 2.4 µg/mL | – | 0.891 | 0.935 | 0.91
S. pneumoniae D39V [3], partner 4.8 µg/mL | – | 0.907 | ≥ 1 | ≥ 1

Settings | Bliss interaction score
B. subtilis 168 [8] | -0.0853
S. aureus DSM 20231 [6] | -0.0464
S. aureus Newman [5] | -0.0449
S. pneumoniae D39V [7] | 0.0662
